Source: article PMC5441580, “GPR40 partial agonist MK-2305 lower fasting glucose in the Goto Kakizaki rat via suppression of endogenous glucose production” (PLoS ONE, 2017)
Values joined by “and” are separate entries in the source; they are usually repeats but may differ in a detail not shown here. Identical values can stand only once. Each block holds one compound with its values, some of them ahead of it.

How the values were obtained:
[1] = system: perfused db/db mouse livers; assay: isolated perfused liver study, 13C NMR, [2-13C] pyruvate; conditions: data not shown
Procedure: To evaluate whether GPR40 partial agonist treatment produced a direct effect on hepatic glucose production, we performed isolated perfused liver studies with ^13C NMR spectroscopy in which GPR40 agonists were dosed directly to the liver ex vivo. Mouse livers were chosen instead of rat livers due to size restrictions of the perfused liver apparatus. […] A detailed description of the perfused liver technique can be found elsewhere. Briefly, db/db mice were anesthetized (Nembutal IP, 100 mg/kg), the portal vein was cannulated and tied off, and the liver was excised and perfused with a pre-oxygenated Krebs-bicarbonate buffered solution. The liver was then placed into a 20 mm NMR tube and the gluconeogenic substrate [2-^13C] pyruvate (10 mM) was added to the perfusate plus either MK-2305 (10 μM) or vehicle (0.1% DMSO). […] These NMR signals were then converted to absolute units (μmoles) by comparison to ^13C NMR spectra of standard solutions acquired under identical conditions. Additional correction factors were included for ^13C-glycogen and ^13C-glucose to account for the fact that position 2 in pyruvate can end up at position 1, 2, 5, or 6 in glucose/glycogen due to the fumarase and triose phosphate isomerase reactions. The slope of each signal versus time was then used to calculate the following fluxes: glucose production, glycogen synthesis, and lactate production.

rat GPR40 (FFAR1) = target: T1, rat GPR40 (FFAR1) (Rattus norvegicus, UniProt Q8K3T4); assay: IP1 functional assay, CHO cells stably expressing rat GPR40; assay type: cell-based; conditions: representative curve Fig 1B
T1 construct: expressed in transfected cells
Procedure: CHO Jump-IN cells stably expressing rat GPR40 or HEK293 Jump-IN cells stably expressing rat GPR120 were cultured in DMEM media supplemented with 10% dialyzed FBS, non-essential amino acids, penicillin/streptomycin, 10 μg/ml Blasticidin S HCL and 200 or 100 μg/ml Hygromycin B, respectively (Life Technologies). Cell stocks were maintained and grown in a sub-confluent state using standard cell culture procedures. The day before the experiment, the cells were harvested with non-enzymatic cell dissociation buffer and re-suspended in DMEM supplemented as described above at 0.15 million cells per ml. […] The seeded plates were incubated overnight at 37°C in a humidified environment.
On the day of the experiment, the growth media was removed from the assay plate by centrifugation using a BlueCatBio BlueWasher, protocol #21 “Light Dry” and 10 μl of IP1 stimulation buffer (prepared according to the Cisbio IP-one Tb HTRF kit) is added to each well. Test compounds were dissolved and serially diluted in DMSO as 200X the final assay concentration and 50 nl of the compound dilution was acoustically added to each well of the assay plates. The plates were then incubated for 60 minutes at room temperature and 10 μl of detection buffer (prepared according to the IP-one Tb HTRF kit) is added to each well of the assay plate. The plates were then incubated for one additional hour at room temperature. […] For each assay, a standard curve plate in which IP1 is titrated is also included. […] The % activation is then plotted versus the concentration of test compound and the dose response curve fitted to a standard 4-paramater non-linear regression model using a custom in-house developed software package. Maximal % activation and EC50 are then determined for each test compound.

GK rats [2] = assay: GK rat chronic efficacy, compound in feed for 20 days; assay type: in vivo; conditions: for Morning (fed) Blood Glucose: Rosi 10 mpk in feed
Procedure: At the start of the study, fed glucose was measured at 8 A.M., and animals were selected and sorted into treatment groups based on ambient glucose (n = 10/male GK group, n = 6/male WKY control group). […] Fed blood glucose, food intake, and body weights were determined on days 0, 1, 3, 7, and 14 of study at 8 A.M. On days 7 and 14, food was removed for 5 h and plasma glucose was measured. Percent inhibitions were calculated as the percent reduction of blood glucose from the average value for vehicle controls. On day 14, blood was collected from the tail vein (20 μl) after the morning glucose measurement and after 5 h fast from a subset of n = 3 rats per treatment group to determine the ambient and fasted exposure of the compounds in circulation. The blood was stored at 4°C in 0.1 M sodium monocitrate for subsequent analysis. Animals were then re-fed their respective diet treatments. On day 20 of treatment at 8 A.M., blood glucose was measured and then animals were euthanized via CO2 asphyxiation. Blood and liver tissue were sampled, processed, and stored at -80°C until analysis.
Plasma was analyzed for triglycerides, NEFA, and HbA1C using a P Modular Roche Clinical Chemistry analyzer. Liver triglycerides were extracted as described by Bligh and Dyer, and were measured using the Infinity triglyceride assay kit (Thermo Scientific, Rockford, IL). Plasma insulin levels were measured via EIA (Mesoscale Discovery ELISA Kit, Gaithersburg MD).

[3] = plasma exposure of the compounds on day 14 of the chronic study; assay type: in vivo, rat; conditions: 10 mg/kg in feed, GK rats
Procedure: At the start of the study, fed glucose was measured at 8 A.M., and animals were selected and sorted into treatment groups based on ambient glucose (n = 10/male GK group, n = 6/male WKY control group). Animals were then placed on diet (LabDiet # 5001) that contained, or was devoid of, compound at the daily doses indicated. Fed blood glucose, food intake, and body weights were determined on days 0, 1, 3, 7, and 14 of study at 8 A.M. On days 7 and 14, food was removed for 5 h and plasma glucose was measured. Percent inhibitions were calculated as the percent reduction of blood glucose from the average value for vehicle controls. On day 14, blood was collected from the tail vein (20 μl) after the morning glucose measurement and after 5 h fast from a subset of n = 3 rats per treatment group to determine the ambient and fasted exposure of the compounds in circulation. The blood was stored at 4°C in 0.1 M sodium monocitrate for subsequent analysis. Animals were then re-fed their respective diet treatments. On day 20 of treatment at 8 A.M., blood glucose was measured and then animals were euthanized via CO2 asphyxiation. Blood and liver tissue were sampled, processed, and stored at -80°C until analysis.

GK rats [4] = assay: GK rat chronic efficacy, compound in feed for 20 days; assay type: in vivo; conditions: Day 7, ~6 hrs after food removal; 10mpk; chronic study; individual animals; 10 mg/kg
diabetic humans = conditions: clinical trials; cited from earlier work
[5] = 10 mpk, following 20 days of treatment in the GK rat, individual animals

T1 sequence (Q8K3T4 whole entry): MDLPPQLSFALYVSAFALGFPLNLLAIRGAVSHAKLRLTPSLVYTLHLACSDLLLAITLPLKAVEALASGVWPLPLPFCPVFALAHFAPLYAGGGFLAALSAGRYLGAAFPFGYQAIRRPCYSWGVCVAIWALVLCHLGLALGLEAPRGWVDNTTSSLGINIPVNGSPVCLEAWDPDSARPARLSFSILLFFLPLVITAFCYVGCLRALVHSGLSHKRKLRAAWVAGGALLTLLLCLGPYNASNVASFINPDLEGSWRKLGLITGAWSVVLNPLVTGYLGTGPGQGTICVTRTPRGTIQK

SMILES: O=C(O)c1ncccc1S [3-MPA, reference compound]
effect on gluconeogenesis in the perfused liver [1]: marked acute reductions

Receptor Activation (%) (rat GPR40 (FFAR1); Concentration 1e-6 M): 370%
Receptor Activation (%) (rat GPR40 (FFAR1); Concentration 1.50E-11 M): -18%
Receptor Activation (%) (rat GPR40 (FFAR1); Concentration 1.56E-08 M): 132%
Receptor Activation (%) (rat GPR40 (FFAR1); Concentration 2.44E-10 M): 11%
Receptor Activation (%) (rat GPR40 (FFAR1); Concentration 2.50E-07 M): 361%
Receptor Activation (%) (rat GPR40 (FFAR1); Concentration 3.91E-09 M): 23%
Receptor Activation (%) (rat GPR40 (FFAR1); Concentration 4.00E-12 M): -6%
Receptor Activation (%) (rat GPR40 (FFAR1); Concentration 6.10E-11 M): 2%
Receptor Activation (%) (rat GPR40 (FFAR1); Concentration 6.25E-08 M): 275%
Receptor Activation (%) (rat GPR40 (FFAR1); Concentration 9.77E-10 M): 18%
SMILES: COc1ccc(F)c(-c2ccc(COc3cccc([C@@H](CC(=O)O)C4CC4)c3)cc2C2=CCCC2(C)C)c1 [AM1638, reference compound]

SMILES: CCOC(=O)[C@H](C)NP(=O)(N[C@@H](C)C(=O)OCC)c1ccc(-c2nc(N)sc2CC(C)C)o1 [CS917, reference compound]
effect on gluconeogenesis in the perfused liver [1]: marked acute reductions

plasma exposure ([3]; day 14, fasted time point): ~0.7 µM
plasma exposure ([3]; day 14, fed time point): ~ 3 μM
SMILES: CN(CCOc1ccc(CC2SC(=O)NC2=O)cc1)c1ccccn1 (stereo not shown) [Rosiglitazone, reference compound]
effect on body weight (GK rats [2]; 10 mg/kg in feed, GK rats): steady increase in body weight
effect on food intake (GK rats [2]; 10 mg/kg in feed, GK rats): significant and consistent increase in food consumption beginning on day 3
% HBA1c (GK rats [2]; [5]): 4.4% and 4.2% and 4.3% and 4.7%
Liver Triglycerides (GK rats [2]; [5]): 5.5 mg/g tissue and 8.7 mg/g tissue and 7.2 mg/g tissue and 5 mg/g tissue and 3.9 mg/g tissue and 6.1 mg/g tissue and 3.1 mg/g tissue
Fasted plasma insulin (GK rats [2]; Day 7, 10mpk, individual animals, 10 mg/kg): 64.4 pg/mL and 7.9 pg/mL and 28.0 pg/mL and 0.0 pg/mL and 126.7 pg/mL and 13.3 pg/mL and 40.2 pg/mL and 147.0 pg/mL and 54.7 pg/mL
Fasted plasma insulin (GK rats [2]; Day 14, 10mpk, individual animals, 10 mg/kg): 82.7 pg/mL and 67.8 pg/mL and 78.9 pg/mL and 214.4 pg/mL and 804.3 pg/mL and 809.3 pg/mL and 0.0 pg/mL and 890.8 pg/mL and 292.0 pg/mL
Morning (fed) Blood Glucose (GK rats [2]; Day 0 (start of study), individual GK rats): 195 mg/dL and 181 mg/dL and 219 mg/dL and 203 mg/dL and 204 mg/dL and 243 mg/dL and 186 mg/dL and 233 mg/dL and 191 mg/dL and 282 mg/dL
Morning (fed) Blood Glucose (GK rats [2]; Day 1, individual GK rats): 211 mg/dL and 175 mg/dL and 218 mg/dL and 246 mg/dL and 213 mg/dL and 240 mg/dL and 207 mg/dL and 205 mg/dL and 198 mg/dL and 275 mg/dL
Morning (fed) Blood Glucose (GK rats [2]; Day 3, individual GK rats): 129 mg/dL and 177 mg/dL and 163 mg/dL and 175 mg/dL and 172 mg/dL and 174 mg/dL and 242 mg/dL
Morning (fed) Blood Glucose (GK rats [2]; Day 7, individual GK rats): 135 mg/dL and 125 mg/dL and 137 mg/dL and 118 mg/dL and 123 mg/dL
Morning (fed) Blood Glucose (GK rats [2]; Day 14, individual GK rats): 133 mg/dL and 134 mg/dL and 121 mg/dL and 132 mg/dL
Morning (fed) Blood Glucose (GK rats [2]; Day 20, individual GK rats): 126 mg/dL and 133 mg/dL and 128 mg/dL and 129 mg/dL and 127 mg/dL and 123 mg/dL
NEFA (mEq/L) (GK rats [2]; Rosi @ 10, 20 days of treatment, individual GK rats): 0.32 mEq/L and 0.33 mEq/L and 0.35 mEq/L and 0.75 mEq/L and 0.49 mEq/L and 0.54 mEq/L and 0.48 mEq/L and 0.39 mEq/L and 0.65 mEq/L
decrease in fed glucose vs. vehicle (GK rats [2]; day 3, 10 mg/kg in feed, GK rats, p < 0.05): 22%
reduction in fasting blood glucose vs. vehicle (GK rats [2]; day 7, 5 hr fast, 10 mg/kg in feed, GK rats): 16%
reduction in fasting blood glucose vs. vehicle (GK rats [2]; day 14, 5 hr fast, 10 mg/kg in feed, GK rats): 19%
plasma NEFA (GK rats [2]; day 20, 10 mg/kg in feed, GK rats, mean ± SEM, vehicle 0.37 ± 0.03, not significant): 0.48 ± 0.05 mEq/L
effect on circulating HbA1C levels (GK rats [2]; day 20, GK rats, all treatment groups): significantly reduced
effect on liver triglyceride levels (GK rats [2]; day 20, GK rats, vs. vehicle controls): significant decrease
effect on fasted plasma insulin (GK rats [2]; days 7 and 14, 5 hr fast, GK rats): no significant effects
Fasted blood glucose (GK rats [2]; second block of the table (day 14 per title), 10mpk, individual animals, 10 mg/kg): 124 mg/dl and 131 mg/dl (2×) and 114 mg/dl and 133 mg/dl and 134 mg/dl
Fasted blood glucose (GK rats [4]): 109 mg/dL and 132 mg/dL and 121 mg/dL and 119 mg/dL and 134 mg/dL and 110 mg/dL and 115 mg/dL and 116 mg/dL

SMILES: Cc1cc(OCCCS(C)(=O)=O)cc(C)c1-c1cccc(COc2ccc3c(c2)OC[C@H]3CC(=O)O)c1 [TAK-875, Fasiglifam]
effect on oral glucose tolerance, fasted plasma glucose, and hemoglobin HbA1C (diabetic humans): significant reductions
